Reference: patent US12421211B2, “Heterocyclic compounds” (Hoffmann-La Roche Inc., priority 2021, dated 2025)
Structures can show the parent of a compound that is named as a salt.

Each compound was assayed on Acinetobacter baumannii ATCC17961 (assay: Antimicrobial susceptibility testing: 90% growth inhibitory concentration (IC90) determination). Conditions: Acinetobacter baumannii, ATCC17961, 16 h, 90% growth inhibitory concentration, Acinetobacter baumannii ATCC17961, Iso-Sensitest broth, OD 600 nm over 16 h; read-out: ATCC 17961 IC90.
Assay type: cell-based
Procedure, shortened: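 Growth inhibition derived in log phase from OD600 kinetics (every 20 minutes, 16h, 35±2° C) of ATCC17961 in Iso-Sensitest medium, inoculum ~5×10^5 CFU/ml. Compounds tested as twofold series, 10 points (e.g. 50 to 0.097 μM final); IC90 and IC50 reported.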
In the case of `COCCn1ncc(-c2ccc(-c3cnc(C(=O)Nc4ccc(C(=O)N5CCN(C(=O)C6CC[N+](C)(C)CC6)CC5)c(Cl)c4)n3C)c(OC)c2)c1C` [Example F18, N-[3-chloro-4-[4-(1,1-dimethylpiperidin-1-ium-4-carbonyl)piperazine-1-carbonyl]phenyl]-5-[2-methoxy-4-[1-(2-methoxyethyl)-5-methyl-pyrazol-4-yl]phenyl]-1-methyl-imidazole-2-carboxamide; formate], the IC90 is reported as 1100 nM.
`COCCn1ncc(-c2ccc(-c3cnc(C(=O)Nc4ccc(C(=O)N5CCN(C(=O)C6CC[N+](C)(C)CC6)CC5)c(Cl)c4)n3C)c(C)c2)c1C` [Example F19, N-[3-chloro-4-[4-(1,1-dimethylpiperidin-1-ium-4-carbonyl)piperazine-1-carbonyl]phenyl]-5-[4-[1-(2-methoxyethyl)-5-methyl-pyrazol-4-yl]-2-methyl-phenyl]-1-methyl-imidazole-2-carboxamide; formate] gave an IC90 of 330 nM.
`CCc1c(-c2ccc(-c3cnc(C(=O)Nc4ccc(C(=O)N5CCN(C(=O)[C@@H]6C[C@@H](O)C[N+]6(C)C)CC5)c(Cl)c4)n3C)c(F)c2F)cnn1CCOC` [Example F20, N-[3-chloro-4-[4-[(2S,4R)-4-hydroxy-1,1-dimethyl-pyrrolidin-1-ium-2-carbonyl]piperazine-1-carbonyl]phenyl]-5-[4-[5-ethyl-1-(2-methoxyethyl)pyrazol-4-yl]-2,3-difluoro-phenyl]-1-methyl-imidazole-2-carboxamide; formate] was tested, and the IC90 was 180 nM.
Work on `COCCn1ncc(-c2ccc(-c3cnc(C(=O)Nc4ccc(C(=O)N5CCN(C(=O)C6CC[N+](C)(C)CC6)CC5)c(Cl)c4)n3C)c(Cl)c2)c1C` [Example F22, N-[3-chloro-4-[4-(1,1-dimethylpiperidin-1-ium-4-carbonyl)piperazine-1-carbonyl]phenyl]-5-[2-chloro-4-[1-(2-methoxyethyl)-5-methyl-pyrazol-4-yl]phenyl]-1-methyl-imidazole-2-carboxamide; formate] yielded an IC90 of 170 nM.
Work on `COCCn1ncc(-c2ccc(-c3cnc(C(=O)Nc4ccc(C(=O)N5CCN(C(=O)C6CC[N+](C)(C)CC6)CC5)c(Cl)c4)n3C)c(OC)c2F)c1C` [Example F23, N-[3-chloro-4-[4-(1,1-dimethylpiperidin-1-ium-4-carbonyl)piperazine-1-carbonyl]phenyl]-5-[3-fluoro-2-methoxy-4-[1-(2-methoxyethyl)-5-methyl-pyrazol-4-yl]phenyl]-1-methyl-imidazole-2-carboxamide; formate] yielded an IC90 of 750 nM.
Work on `CCc1nn(CCOC)cc1-c1ccc(-c2cnc(C(=O)Nc3ccc(C(=O)N4CCN(C(=O)CC5(O)CC[N+](C)(C)CC5)CC4)c(Cl)c3)n2C)c(F)c1F` [Example F24, N-[3-chloro-4-[4-[2-(4-hydroxy-1,1-dimethyl-piperidin-1-ium-4-yl)acetyl]piperazine-1-carbonyl]phenyl]-5-[4-[3-ethyl-1-(2-methoxyethyl)pyrazol-4-yl]-2,3-difluoro-phenyl]-1-methyl-imidazole-2-carboxamide; formate] yielded an IC90 of 590 nM.
`COCCn1cc(-c2ccc(-c3cnc(C(=O)Nc4ccc(C(=O)N5CCN(C(=O)C6CC[N+](C)(C)CC6)CC5)c(Cl)c4)n3C)c(F)c2F)c(CO)n1` [Example F25, N-[3-chloro-4-[4-(1,1-dimethylpiperidin-1-ium-4-carbonyl)piperazine-1-carbonyl]phenyl]-5-[2,3-difluoro-4-[3-(hydroxymethyl)-1-(2-methoxyethyl)pyrazol-4-yl]phenyl]-1-methyl-imidazole-2-carboxamide; formate] showed an IC90 of 1200 nM.
Work on `COCCn1cc(-c2ccc(-c3cnc(C(=O)Nc4ccc(C(=O)N5CCN(C(=O)C6CC[N+](C)(C)CC6)CC5)c(Cl)c4)n3C)c(F)c2F)c(N)n1` [Example F26, 5-[4-[3-amino-1-(2-methoxyethyl)pyrazol-4-yl]-2,3-difluoro-phenyl]-N-[3-chloro-4-[4-(1,1-dimethylpiperidin-1-ium-4-carbonyl)piperazine-1-carbonyl]phenyl]-1-methyl-imidazole-2-carboxamide; formate] yielded an IC90 of 1400 nM.
